The results in this text go back to ChEMBL document CHEMBL1128984, “Synthesis and biological activity of novel tricyclic -lactams” (1996).

Type in all cases: functional
Assay [1] concerns Staphylococcus aureus. As to the kind of experiment: In vitro antibacterial activity against Staphylococcus aureus 1131.
In another assay the test system is Pseudomonas aeruginosa. Kind of assay: In vitro antibacterial activity against Pseudomonas aeruginosa 1911.
The test system of assay [2] is Staphylococcus aureus. Kind of assay: In vitro antibacterial activity against Staphylococcus aureus 663.
Assay [3] deals with Staphylococcus aureus. As to the kind of experiment: In vitro antibacterial activity against Staphylococcus aureus 853.
For a further assay, the system named is Enterococcus faecalis. As to the kind of experiment: In vitro antibacterial activity against […] faecalis 850E.
For another assay, the system named is Clostridium perfringens. Kind of assay: In vitro antibacterial activity against Clostridium perfringens 615.
The test system of a further assay is Escherichia coli. Kind of assay: In vitro antibacterial activity against Escherichia coli 1850.

For the compound `C[C@@H](O)[C@H]1C(=O)N2C(C(=O)[O-])=C3CCC[C@H]3[C@H]12.[Na+]`, the minimal inhibitory concentration (MIC) (usually the smallest concentration in the dilution series that meets the test's criterion for growth inhibition) in the assay with Staphylococcus aureus [1] was 8 µg/mL; in the assay on Pseudomonas aeruginosa, above 32 µg/mL; against Staphylococcus aureus [2], 1 µg/mL; in the assay on Staphylococcus aureus [3], 0.5 µg/mL; in the assay with Enterococcus faecalis it was 16 µg/mL; in the assay on Clostridium perfringens, 1 µg/mL. In addition, 2 µg/mL was the least that counted as inhibitory in the assay with Escherichia coli (MIC).

As for `CO[C@H]1CC[C@H]2C1=C(C(=O)[O-])N1C(=O)[C@H]([C@@H](C)O)[C@@H]21.[Na+]`, the MIC against Staphylococcus aureus [1] was 8 µg/mL; against Pseudomonas aeruginosa, 32 µg/mL; with Staphylococcus aureus [2] it was 0.25 µg/mL; in the assay on Staphylococcus aureus [3] it was 0.5 µg/mL; with Enterococcus faecalis, 2 µg/mL; against Clostridium perfringens it was 0.12 µg/mL. For the same compound, the MIC with Escherichia coli is 0.5 µg/mL.

Take `C[C@@H](O)[C@H]1C(=O)N2C(C(=O)O)=C(SCCNC=N)C[C@H]12.O` [IMIPENEM]: the minimum inhibitory concentration (MIC) in the assay with Staphylococcus aureus [1] came out at 4 µg/mL; against Pseudomonas aeruginosa, 4 µg/mL; against Staphylococcus aureus [2], 0.06 µg/mL; with Staphylococcus aureus [3], 0.12 µg/mL; in the assay with Enterococcus faecalis it was 2 µg/mL; against Clostridium perfringens, 0.03 µg/mL. The MIC against Escherichia coli stood at 0.5 µg/mL.
